According to ChEMBL document CHEMBL6103669, “Is a Fungal Apocalypse Inevitable or Just a Hallucination? An Overview of the Antifungal Armamentarium Used in the Fight against Pathogenic Fungi” (ACS Med Chem Lett, 2025):
In brackets after ≈: the same amount, converted by molar mass. One block for each compound: values may come before it.

Key:
[1] = target: T1, Sterol 24-C-methyltransferase (Candida albicans (strain SC5314 / ATCC MYA-2876) (Yeast), UniProt O74198); assay: Inhibition of Candida albicans SC5314 Erg6
T1 sequence (O74198 whole entry): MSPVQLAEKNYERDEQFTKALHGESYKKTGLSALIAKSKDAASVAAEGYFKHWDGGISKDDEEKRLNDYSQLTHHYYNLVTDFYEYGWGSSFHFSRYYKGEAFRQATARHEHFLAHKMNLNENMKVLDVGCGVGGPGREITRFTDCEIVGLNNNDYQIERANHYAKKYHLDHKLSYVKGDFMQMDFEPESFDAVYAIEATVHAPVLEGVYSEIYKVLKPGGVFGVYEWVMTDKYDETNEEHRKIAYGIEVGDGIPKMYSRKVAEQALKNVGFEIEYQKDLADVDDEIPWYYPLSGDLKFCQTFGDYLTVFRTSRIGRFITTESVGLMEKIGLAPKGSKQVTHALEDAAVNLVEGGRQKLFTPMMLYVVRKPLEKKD

Candida tropicalis [2] = assay: Antifungal activity against Candida tropicalis 3890 assessed as reduction in fungal growth; type: functional
Candida tropicalis [3] = assay: Antifungal activity against Candida tropicalis 5008 assessed as reduction in fungal growth; type: functional
Cryptococcus neoformans [4] = assay: Antifungal activity against Cryptococcus neoformans H99; type: functional
[5] = target: T1, Sterol 24-C-methyltransferase; assay: Inhibition of N-terminal His-tagged Candida albicans SC5314 Erg6 extracted from Escherichia coli BL21 (DE3) methyltransferase activity using zymosterol as substrate pre-incubated for 15 mins followed by substrate addition by liquid scintillation counter analysis
Candida albicans [6] = assay: Antifungal activity against fluconazole-resistant Candida albicans 901 assessed as inhibition of fungal growth; type: functional
Cryptococcus neoformans [7] = assay: Antifungal activity against Cryptococcus neoformans H99 assessed as fungal growth inhibition measured after 48 hrs by resazurin assay; type: functional
Candida albicans [8] = assay: Antifungal activity against fluconazole-resistant Candida albicans 904 assessed as reduction in fungal growth by NCCLS method; type: functional

IC50 [1]: 11.6 µM
Structure (SMILES): C=C(CC[C@@H](CO)[C@H]1CC[C@@]2(C)C3=C(CC[C@]12C)[C@@]1(C)CC[C@@H](OC(=O)C[C@@](C)(O)CC(=O)O)C(C)(C)[C@@H]1CC3)[C@H](C)C(=O)O

Structure (SMILES): O=C(CCCCCCCOc1ccc(CN2CCN(CC(O)(Cn3cncn3)c3ccc(F)cc3F)CC2)cc1)NO (centres undefined)
MIC80 (Candida tropicalis [2]): 0.5 µg/mL (≈ 0.852 µM) | MIC80 (Candida tropicalis [3]): 0.5 µg/mL (≈ 0.852 µM) | MIC80 (Cryptococcus neoformans [4]): 0.5 µg/mL (≈ 0.852 µM)

IC50 [5]: 0.58 µM
Structure (SMILES): Cc1c(-n2c(-c3ccc(Br)cc3)cs/c2=N\c2ccccc2)c(=O)n(-c2ccccc2)n1C

Structure (SMILES): Clc1ccc(N/N=C(\c2ccccc2)c2ccccn2)nc1
MIC50 (Candida albicans [6]): 0.5 µg/mL (≈ 1.62 µM) | MIC50 (Cryptococcus neoformans [7]): 0.5 µg/mL (≈ 1.62 µM)

Structure (SMILES): COc1cc2c(cc1-c1c(C)noc1C)[nH]c1ncnc(NCCCCCCC(=O)NO)c12
MIC80 (Cryptococcus neoformans [4]): 8 µg/mL (≈ 17.7 µM) | MIC80 (Candida albicans [8]): 0.5 µg/mL (≈ 1.1 µM)
